≈ marks a conversion by molar mass, not a printed value.
Tests used:
Liver microsomes = experiment: Metabolic stability in human liver microsomes assessed as intrinsic clearance; format: ADME, Microsome; design: unit not given here
Helicobacter pylori = experiment: Antimicrobial activity against Helicobacter pylori SS1 by NCCLS method; format: functional
[1] = Protein binding in mouse plasma; format: ADME, cell-free; conditions: read-out: PPB (converted)
Glutamate racemase [2] = target: T1, Glutamate racemase (Helicobacter pylori J99, UniProt Q9ZLT0); experiment: Inhibition of MurI in wild type Helicobacter pylori J99
T1 sequence (Q9ZLT0 whole entry): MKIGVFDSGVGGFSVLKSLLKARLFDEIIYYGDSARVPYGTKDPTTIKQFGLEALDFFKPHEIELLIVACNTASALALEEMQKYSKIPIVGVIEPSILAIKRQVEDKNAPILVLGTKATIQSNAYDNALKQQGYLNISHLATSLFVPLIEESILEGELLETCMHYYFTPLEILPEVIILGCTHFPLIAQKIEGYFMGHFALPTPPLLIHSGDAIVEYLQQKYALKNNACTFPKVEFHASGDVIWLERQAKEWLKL

[3] = Metabolic stability in mouse liver microsomes assessed as intrinsic clearance; format: ADME, Microsome; design: unit not given here
[4] = Inhibition of Escherichia coli MurI
Staphylococcus aureus = experiment: Antimicrobial activity against Staphylococcus aureus; format: functional
Enterococcus faecalis = experiment: Antimicrobial activity against Enterococcus faecalis; format: functional
[5] = Inhibition of Staphylococcus aureus MurI
Glutamate racemase [6] = target: T2, Glutamate racemase (Enterococcus faecalis (strain ATCC 700802 / V583), UniProt Q836J0); experiment: Inhibition of Enterococcus faecalis MurI
T2 sequence (Q836J0 whole entry): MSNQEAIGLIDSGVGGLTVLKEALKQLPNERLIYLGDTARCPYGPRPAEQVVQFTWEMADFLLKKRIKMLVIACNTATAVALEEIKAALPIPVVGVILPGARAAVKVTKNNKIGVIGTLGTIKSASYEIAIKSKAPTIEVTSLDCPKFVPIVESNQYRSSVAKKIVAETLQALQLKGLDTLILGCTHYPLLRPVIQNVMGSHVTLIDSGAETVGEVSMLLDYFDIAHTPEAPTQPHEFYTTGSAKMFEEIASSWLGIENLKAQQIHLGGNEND

Escherichia coli = experiment: Antimicrobial activity against Escherichia coli; format: functional
[7] = Distribution coefficient, log D of the compound; format: physicochemical; conditions: octanol/water

Structure (SMILES)	CL (Liver microsomes)	MIC (Helicobacter pylori) [µg/mL]	fraction unbound [1]	IC50 (Glutamate racemase [2]) [nM]	CL [3]	IC50 [4] [nM]	MIC (Staphylococcus aureus) [µg/mL]	MIC (Enterococcus faecalis) [µg/mL]	IC50 [5] [nM]	IC50 (Glutamate racemase [6]) [nM]	MIC (Escherichia coli) [µg/mL]	logD [7]
CNC1=Nc2ncccc2C(c2cc[nH]c2)=NC1c1cccs1 (stereo unspecified)	19	0.4 (≈ 1.24 µM)	0.246	600	36	–	–	–	–	–	–	–
OC1CN(C2=Nc3ccccc3C(c3ccccc3)=NC2c2cccs2)C1 (stereo unspecified)	–	0.25 (≈ 0.669 µM)	0.01	–	–	–	–	–	–	–	–	–
CNC1=Nc2ncccc2C(c2ccco2)=NC1c1sccc1Cl (stereo unspecified)	74	0.5 (≈ 1.4 µM)	0.013	2800	> 150	–	–	–	–	–	–	–
CNC1=Nc2ccccc2C(c2ccccc2)=NC1c1cccs1 (stereo unspecified)	43	0.5 (≈ 1.51 µM)	0.003	1700	97	> 400000	> 64	> 64	> 400000	> 400000	> 64	4.1
CCCNC1=Nc2ccccc2C(c2ccccc2)=NC1c1cccs1 (stereo unspecified)	30	16 (≈ 44.5 µM)	–	4000	> 100	–	–	–	–	–	–	–
c1ccc(C2=NC(c3cccs3)C(NC3CC3)=Nc3ccccc32)cc1 (stereo unspecified)	50	8 (≈ 22.4 µM)	0.03	1100	74	–	–	–	–	–	–	–
CNC1=Nc2ccc(Cl)cc2C(c2ccccc2)=NC1c1cccs1 (stereo unspecified)	52	8 (≈ 21.9 µM)	–	13000	> 100	–	–	–	–	–	–	–
CNC1=Nc2nc(C)ccc2C(c2ccccc2)=NC1c1cccs1 (stereo unspecified)	73	0.25 (≈ 0.722 µM)	0.039	1700	> 100	–	–	–	–	–	–	–
CNC1=Nc2ncccc2C(c2ccco2)=NC1c1ccns1 (stereo unspecified)	26	2 (≈ 6.18 µM)	0.264	8700	27	–	–	–	–	–	–	–
CNC1=Nc2ncccc2C(c2nccs2)=NC1c1cccs1 (stereo unspecified)	< 14	1 (≈ 2.95 µM)	0.17	1700	33	–	–	–	–	–	–	–
COCCNC1=Nc2ccccc2C(c2ccccc2)=NC1c1cccs1 (stereo unspecified)	80	32 (≈ 85.2 µM)	–	18900	> 100	–	–	–	–	–	–	–
CNC1=Nc2ncccc2C(c2ccco2)=NC1c1cccs1 (stereo unspecified)	13	0.19 (≈ 0.589 µM)	0.182	2000	30	–	–	–	–	–	–	–
CNC1=Nc2ncccc2C(c2ccccc2)=NC1c1cccs1 (stereo unspecified)	40	0.17 (≈ 0.511 µM)	0.041	2200	82	–	–	–	–	–	–	–

— ChEMBL document CHEMBL1143274, “Potent and selective inhibitors of Helicobacter pylori glutamate racemase (MurI): pyridodiazepine amines” (Bioorg Med Chem Lett, 2009)
